Measurements from patent US20120115845A1, “THERAPEUTIC AGENTS” (priority 2007, published 2012).
pEC50, pIC50: −log10 of the molar value.

molecular target: T1, human GHS receptor (Homo sapiens, UniProt Q92847); test: h bind IC50 (binding assay, Table 1); conditions: not given
T1 sequence (Q92847 whole entry): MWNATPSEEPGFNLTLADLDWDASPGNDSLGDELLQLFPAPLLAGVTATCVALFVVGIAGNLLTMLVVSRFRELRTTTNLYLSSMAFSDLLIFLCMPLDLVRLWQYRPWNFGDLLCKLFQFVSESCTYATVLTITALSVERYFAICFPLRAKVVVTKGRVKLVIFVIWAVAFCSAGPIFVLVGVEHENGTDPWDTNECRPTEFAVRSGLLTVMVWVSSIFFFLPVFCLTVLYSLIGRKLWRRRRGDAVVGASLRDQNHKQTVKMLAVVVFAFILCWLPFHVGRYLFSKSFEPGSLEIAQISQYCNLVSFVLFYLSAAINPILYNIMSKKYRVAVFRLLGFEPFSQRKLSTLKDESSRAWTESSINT

| Structure (SMILES) | IC50 in the binding assay |
| --- | --- |
| COc1cc(Cl)c(C(=O)NC(=O)Nc2nc3ccc(S(C)(=O)=O)cc3s2)cc1OC [2-chloro-4,5-dimethoxy-N-[(6-methylsulfonyl-1,3-benzothiazol-2-yl)carbamoyl]benzamide] | did not have IC50s in the range of about 0.001 μM to about 10 μM |
| CS(=O)(=O)c1ccc2nc(NC(=O)NC(=O)c3cc(F)ccc3Cl)sc2c1 [2-chloro-5-fluoro-N-[(6-methylsulfonylbenzothiazol-2-yl)carbamoyl]benzamide] | did not have IC50s in the range of about 0.001 μM to about 10 μM |

same assay, conditions: human receptor; Table 1

| Structure (SMILES) | pIC50 |
| --- | --- |
| CN(C)CCS(=O)(=O)c1ccc2nc(NC(=O)NC(=O)c3ccccc3Cl)sc2c1 [Example 3, 2-Chloro-N-[[6-(2-dimethylaminoethylsulfonyl)benzothiazol-2-yl]carbamoyl]benzamide] | 5.95 |
| O=C(NC(=O)c1ccccc1Cl)Nc1nc2ccc(S(=O)(=O)CCN3CCC(O)C3)cc2s1 (stereo not drawn) [Example 5, 2-Chloro-N-[[6-[2-(3-hydroxypyrrolidin-1-yl)ethylsulfonyl]benzothiazol-2-yl]carbamoyl]benzamide] | 6.40 |
| O=C(NC(=O)c1ccccc1Cl)Nc1nc2ccc(S(=O)(=O)CCN3CCCC3)cc2s1 [Example 6, 2-Chloro-N-[[6-(2-pyrrolidin-1-ylethylsulfonyl)benzothiazol-2-yl]carbamoyl]benzamide] | 7.35 |
| CCN(CC)CCS(=O)(=O)c1ccc2nc(NC(=O)NC(=O)c3ccccc3Cl)sc2c1 [Example 7, 2-Chloro-N-[[6-(2-diethylaminoethylsulfonyl)benzothiazol-2-yl]carbamoyl]benzamide] | 6.17 |
| COCCN(C)CCS(=O)(=O)c1ccc2nc(NC(=O)NC(=O)c3ccccc3Cl)sc2c1 [Example 9, 2-Chloro-N-[[6-[2-(2-methoxyethyl-methyl-amino)ethylsulfonyl]benzothiazol-2-yl]carbamoyl]benzamide] | 6.61 |
| CN(CCO)CCS(=O)(=O)c1ccc2nc(NC(=O)NC(=O)c3ccccc3Cl)sc2c1 [Example 11, 2-Chloro-N-[[6-[2-(2-hydroxyethyl-methyl-amino)ethylsulfonyl]benzothiazol-2-yl]carbamoyl]benzamide] | 6.46 |
| CCC(C)NCCS(=O)(=O)c1ccc2nc(NC(=O)NC(=O)c3ccccc3Cl)sc2c1 (stereo not drawn) [Example 12, N-[[6-[2-(Butan-2-ylamino)ethylsulfonyl]benzothiazol-2-yl]carbamoyl]-2-chloro-benzamide] | 6.75 |
| CCN(CCOC)CCS(=O)(=O)c1ccc2nc(NC(=O)NC(=O)c3ccccc3Cl)sc2c1 [Example 15, 2-Chloro-N-[[6-[2-(ethyl-(2-methoxyethyl)amino)ethylsulfonyl]benzothiazol-2-yl]carbamoyl]benzamide] | 5.97 |
| CC1CN(CCS(=O)(=O)c2ccc3nc(NC(=O)NC(=O)c4ccccc4Cl)sc3c2)CC(C)O1 (stereo not drawn) [Example 19, 2-Chloro-N-[[6-[2-(2,6-dimethylmorpholin-4-yl)ethylsulfonyl]benzothiazol-2-yl]carbamoyl]benzamide] | 5.98 |
| CC(NCCS(=O)(=O)c1ccc2nc(NC(=O)NC(=O)c3ccccc3Cl)sc2c1)c1ccccc1 (stereo not drawn) [Example 20, 2-Chloro-N-[[6-[2-(1-phenylethylamino)ethylsulfonyl]benzothiazol-2-yl]carbamoyl]benzamide] | 6.74 |
| O=C(NC(=O)c1ccccc1Cl)Nc1nc2ccc(S(=O)(=O)CCNCC3CCCO3)cc2s1 (stereo not drawn) [Example 22, 2-Chloro-N-[[6-[2-(oxolan-2-ylmethylamino)ethylsulfonyl]benzothiazol-2-yl]carbamoyl]benzamide] | 6.73 |
| CN1CCN(CCS(=O)(=O)c2ccc3nc(NC(=O)NC(=O)c4ccccc4Cl)sc3c2)CC1 [Example 23, 2-Chloro-N-[[6-[2-(4-methylpiperazin-1-yl)ethylsulfonyl]benzothiazol-2-yl]carbamoyl]benzamide] | 7.08 |
| CCN1CCN(CCS(=O)(=O)c2ccc3nc(NC(=O)NC(=O)c4ccccc4Cl)sc3c2)CC1 [Example 29, 2-Chloro-N-[[6-[2-(4-ethylpiperazin-1-yl)ethylsulfonyl]benzothiazol-2-yl]carbamoyl]benzamide] | 7.22 |
| O=C(NC(=O)c1ccccc1Cl)Nc1nc2ccc(S(=O)(=O)CCNCCF)cc2s1 [Example 31, 2-Chloro-N-[[6-[2-(2-fluoroethylamino)ethylsulfonyl]benzothiazol-2-yl]carbamoyl]benzamide] | 7.26 |
| CC1(NCCS(=O)(=O)c2ccc3nc(NC(=O)NC(=O)c4ccccc4Cl)sc3c2)CC1 [Example 39, 2-Chloro-N-[[6-[2-[(1-methylcyclopropyl)amino]ethylsulfonyl]benzothiazol-2-yl]carbamoyl]benzamide] | 6.75 |
| COCCS(=O)(=O)c1ccc2nc(NC(=O)NC(=O)c3ccccc3Cl)sc2c1 [Example 40, 2-Chloro-N-[[6-(2-methoxyethylsulfonyl)benzothiazol-2-yl]carbamoyl]benzamide] | 5.74 |
| COCCOCCS(=O)(=O)c1ccc2nc(NC(=O)NC(=O)c3ccccc3Cl)sc2c1 [Example 42, 2-Chloro-N-[[6-[2-(2-methoxyethoxy)ethylsulfonyl]benzothiazol-2-yl]carbamoyl]benzamide] | 6.75 |
| O=C(NC(=O)c1cc(-n2cccc2)ccc1Cl)Nc1nc2ccc(S(=O)(=O)CCCN3CCC3)cc2s1 [Example 74, N-[[6-[3-(Azetidin-1-yl)propylsulfonyl]benzothiazol-2-yl]carbamoyl]-2-chloro-5-pyrrol-1-yl-benzamide] | 9.00 |
| CC(C)NCCCS(=O)(=O)c1ccc2nc(NC(=O)NC(=O)c3cc(-n4cccc4)ccc3Cl)sc2c1 [Example 75, 2-Chloro-N-[[6-[3-(propan-2-ylamino)propylsulfonyl]benzothiazol-2-yl]carbamoyl]-5-pyrrol-1-yl-benzamide] | 8.13 |
| COCCNCCCS(=O)(=O)c1ccc2nc(NC(=O)NC(=O)c3cc(-n4cccc4)ccc3Cl)sc2c1 [Example 76, 2-Chloro-N-[[6-[3-(2-methoxyethylamino)propylsulfonyl]benzothiazol-2-yl]carbamoyl]-5-pyrrol-1-yl-benzamide] | 7.94 |
| O=C(NC(=O)c1cc(-n2cccc2)ccc1Cl)Nc1nc2ccc(S(=O)(=O)CCN3CCC3)cc2s1 [Example 81, N-[[6-[2-(Azetidin-1-yl)ethylsulfonyl]benzothiazol-2-yl]carbamoyl]-2-chloro-5-pyrrol-1-yl-benzamide] | 8.70 |
| CC(C)NCCS(=O)(=O)c1ccc2nc(NC(=O)NC(=O)c3cc(-n4cccc4)ccc3Cl)sc2c1 [Example 82, 2-Chloro-N-[[6-[2-(propan-2-ylamino)ethylsulfonyl]benzothiazol-2-yl]carbamoyl]-5-pyrrol-1-yl-benzamide] | 8.80 |
| CC(C)NCCS(=O)(=O)c1ccc2nc(NC(=O)NC(=O)c3cc(-n4cccc4)ccc3I)sc2c1 [Example 84, 2-Iodo-N-(6-(2-(isopropylamino)ethylsulfonyl)benzothiazol-2-ylcarbamoyl)-5-(1H-pyrrol-1-yl)benzamide] | 8.15 |
| O=C(NC(=O)c1ccccc1Cl)Nc1nc2ccc(S(=O)(=O)CCOCCO)cc2s1 [Example 121, 2-Chloro-N-[[6-[2-(2-hydroxyethoxy)ethylsulfonyl]benzothiazol-2-yl]carbamoyl]benzamide] | 6.40 |
| C=CS(=O)(=O)c1ccc2nc(NC(=O)NC(=O)c3ccccc3Cl)sc2c1 [Example 129, 2-Chloro-N-[(6-ethenylsulfonylbenzothiazol-2-yl)carbamoyl]benzamide] | 6.66 |
| O=C(NC(=O)c1ccccc1Cl)Nc1nc2ccc(S(=O)(=O)C3CCCN(CC4CC4)C3)cc2s1 (stereo not drawn) [Example 143, 2-Chloro-N-[[6-[[1-(cyclopropylmethyl)-3-piperidyl]sulfonyl]benzothiazol-2-yl]carbamoyl]benzamide] | 6.31 |
| O=C(NC(=O)c1ccccc1Cl)Nc1nc2ccc(S(=O)(=O)C3CCN(CC4CC4)C3)cc2s1 (stereo not drawn) [Example 144, 2-Chloro-N-[[6-[1-(cyclopropylmethyl)pyrrolidin-3-yl]sulfonylbenzothiazol-2-yl]carbamoyl]benzamide] | 6.70 |
| CC(C)NCCCS(=O)(=O)c1ccc2nc(NC(=O)NC(=O)c3ccccc3Cl)sc2c1 [Example 145, 2-Chloro-N-[[6-[3-(propan-2-ylamino)propylsulfonyl]benzothiazol-2-yl]carbamoyl]benzamide] | 7.22 |

molecular target: T1, human GHS receptor; test: Ghrelin IP1 agonist assay (IP1 HTRF); assay type: cell-based; set-up: expressed in transfected cells; host or cells: HEK293s; conditions: 2 h; agonist effect as % maximal effect of GHRP-6 (5 μM); read-out: h IP1 ag %
Experimental: In HEK293s cells stably expressing human GHS receptor (In-house), agonist activity was assessed by measuring intracellular myo-Inositol 1 phosphate (IP1) using the IP1 HTRF assay kit (Cisbio International).
Cells were harvested using accutase (Sigma), spun down at 1000 rpm for 5 minutes and resuspended in stimulation buffer (as above) containing 0.02% fatty acid free BSA at a density of 1.43E6cells/ml.
Agonist effect of the compound was expressed as % maximal effect of GHRP-6 (5 μM: Bachem). Sigmoidal curves were fitted by Origin 7.5 Client and EC50 values determined.

| Structure (SMILES) | Emax [%] |
| --- | --- |
| CS(=O)(=O)c1ccc2nc(NC(=O)NC(=O)c3c(F)cccc3F)sc2c1 [Example 112, 2,6-Difluoro-N-[(6-methylsulfonylbenzothiazol-2-yl)carbamoyl]benzamide] | 38.4 |
| NC(=O)COCCS(=O)(=O)c1ccc2nc(NC(=O)NC(=O)c3ccccc3Cl)sc2c1 [Example 120, N-[[6-[2-(Carbamoylmethoxy)ethylsulfonyl]benzothiazol-2-yl]carbamoyl]-2-chloro-benzamide] | 29.5 |
| CS(=O)(=O)c1ccc2nc(NC(=O)NC(=O)c3ccccc3-c3ccccc3F)sc2c1 [Example 125, 2-(2-Fluorophenyl)-N-[(6-methylsulfonylbenzothiazol-2-yl)carbamoyl]benzamide] | 31.8 |
| CS(=O)(=O)c1ccc2nc(NC(=O)NC(=O)c3ccccc3-c3ccc(F)cc3)sc2c1 [Example 126, 2-(4-Fluorophenyl)-N-[(6-methylsulfonylbenzothiazol-2-yl)carbamoyl]benzamide] | 38.4 |

same assay, conditions: HEK293s cells stably expressing human GHS receptor; 2 hours at 37° C.; read-out: h IP1 ag EC50

| Structure (SMILES) | pEC50 |
| --- | --- |
| CS(=O)(=O)c1ccc2nc(NC(=O)NC(=O)c3c(F)cccc3F)sc2c1 [Example 112, 2,6-Difluoro-N-[(6-methylsulfonylbenzothiazol-2-yl)carbamoyl]benzamide] | 6.85 |
| NC(=O)COCCS(=O)(=O)c1ccc2nc(NC(=O)NC(=O)c3ccccc3Cl)sc2c1 [Example 120, N-[[6-[2-(Carbamoylmethoxy)ethylsulfonyl]benzothiazol-2-yl]carbamoyl]-2-chloro-benzamide] | 6.68 |
| CS(=O)(=O)c1ccc2nc(NC(=O)NC(=O)c3ccccc3-c3ccccc3F)sc2c1 [Example 125, 2-(2-Fluorophenyl)-N-[(6-methylsulfonylbenzothiazol-2-yl)carbamoyl]benzamide] | 6.60 |
| CS(=O)(=O)c1ccc2nc(NC(=O)NC(=O)c3ccccc3-c3ccc(F)cc3)sc2c1 [Example 126, 2-(4-Fluorophenyl)-N-[(6-methylsulfonylbenzothiazol-2-yl)carbamoyl]benzamide] | 5.99 |

same assay, conditions: agonist effect as % maximal effect of GHRP-6 (5 μM)

| Structure (SMILES) | h IP1 ag % [%] |
| --- | --- |
| CCS(=O)(=O)c1ccccc1C(=O)NC(=O)Nc1nc2ccc(S(C)(=O)=O)cc2s1 [Example 135, 2-Ethyl sulfonyl-N-[(6-methylsulfonylbenzothiazol-2-yl)carbamoyl]benzamide] | 18.23 |
